Source: PMC5218480 (PLoS ONE, 2017)

Test system: MV-4-11 cells
Assay: Gene expression microarray analysis (Affymetrix PrimeView) and GSEA
Assay type: cell-based, human
Parameters: RFU PODN (11730768_x_at) / Fold change /veh PODN (11730768_x_at) / RFU LINC00158 (11744669_a_at) / Fold change /veh LINC00158 (11744669_a_at) / RFU DUSP10 (11751237_a_at) / Fold change /veh DUSP10 (11751237_a_at) / RFU ID3 (11757404_x_at) / Fold change /veh ID3 (11757404_x_at) / RFU PLEKHG5 (11737974_s_at) / Fold change /veh PLEKHG5 (11737974_s_at) / RFU LRRC4B (11730491_at) / Fold change /veh LRRC4B (11730491_at) / RFU GIMAP4 (11747438_a_at) / Fold change /veh GIMAP4 (11747438_a_at) / RFU KRT8 (11758183_x_at) / Fold change /veh KRT8 (11758183_x_at) / RFU CNN1 (11734310_a_at) / Fold change /veh CNN1 (11734310_a_at) / RFU VPS37D (11726825_at) / Fold change /veh VPS37D (11726825_at) / RFU C10orf10 (11716522_x_at) / Fold change /veh C10orf10 (11716522_x_at) / RFU KIR2DL2 /// KIR2DL4 /// KIR2DL5A /// KIR2DL5B /// KIR2DS1 /// KIR2DS2 /// KIR2DS3 /// KIR2DS4 /// KIR3DL3 /// KIR3DL3 /// KIR3DS1 (11738374_at) / Fold change /veh KIR2DL2 /// KIR2DL4 /// KIR2DL5A /// KIR2DL5B /// KIR2DS1 /// KIR2DS2 /// KIR2DS3 /// KIR2DS4 /// KIR3DL3 /// KIR3DL3 /// KIR3DS1 (11738374_at) / RFU C1QL1 (11718748_at) / Fold change /veh C1QL1 (11718748_at) / RFU TMPRSS4 (11747572_a_at) / Fold change /veh TMPRSS4 (11747572_a_at) / RFU HAMP (11756126_x_at) / Fold change /veh HAMP (11756126_x_at) / RFU RNFT2 (11725882_a_at) / Fold change /veh RNFT2 (11725882_a_at) / RFU NR4A2 (11747474_a_at) / Fold change /veh NR4A2 (11747474_a_at) / RFU ABCC12 (11746883_a_at) / Fold change /veh ABCC12 (11746883_a_at) / RFU TMEM136 (11760407_x_at) / Fold change /veh TMEM136 (11760407_x_at) / RFU CLDN22 /// WWC2 (11732394_at) / Fold change /veh CLDN22 /// WWC2 (11732394_at) / RFU HLA-DPB1 (11760878_x_at) / Fold change /veh HLA-DPB1 (11760878_x_at) / RFU SPINT1 (11716480_a_at) / Fold change /veh SPINT1 (11716480_a_at) / RFU GAP43 (11754022_s_at) / Fold change /veh GAP43 (11754022_s_at) / RFU A4GNT (11735810_at) / Fold change /veh A4GNT (11735810_at) / RFU PRB3 (11715151_x_at) / Fold change /veh PRB3 (11715151_x_at) / RFU TUBB4B (11761932_at) / Fold change /veh TUBB4B (11761932_at) / RFU CAPN14 (11732068_a_at) / Fold change /veh CAPN14 (11732068_a_at) / RFU TMCC2 (11721928_a_at) / Fold change /veh TMCC2 (11721928_a_at) / RFU IRGQ (11745062_a_at) / Fold change /veh IRGQ (11745062_a_at) / RFU FAM174B (11720279_a_at) / Fold change /veh FAM174B (11720279_a_at) / RFU TMPRSS4 (11748680_a_at) / Fold change /veh TMPRSS4 (11748680_a_at) / RFU FAM212B (11763350_a_at) / Fold change /veh FAM212B (11763350_a_at) / RFU PLEKHG5 (11743358_a_at) / Fold change /veh PLEKHG5 (11743358_a_at) / RFU ZSCAN30 (11745921_a_at) / Fold change /veh ZSCAN30 (11745921_a_at) / RFU CMKLR1 (11741424_a_at) / Fold change /veh CMKLR1 (11741424_a_at) / RFU LOC101060620 /// MAPK8IP1 (11723275_at) / Fold change /veh LOC101060620 /// MAPK8IP1 (11723275_at) / RFU SPTSSB (11747773_x_at) / Fold change /veh SPTSSB (11747773_x_at) / RFU PRSS12 (11739890_at) / Fold change /veh PRSS12 (11739890_at) / RFU BIN1 (11741810_x_at) / Fold change /veh BIN1 (11741810_x_at) / RFU WNT11 (11732464_a_at) / Fold change /veh WNT11 (11732464_a_at) / RFU C10orf10 (11716521_a_at) / Fold change /veh C10orf10 (11716521_a_at) / RFU C5orf56 (11738089_at) / Fold change /veh C5orf56 (11738089_at) / RFU CYB561 (11721691_x_at) / Fold change /veh CYB561 (11721691_x_at) / RFU ANKRD19P (11752326_a_at) / Fold change /veh ANKRD19P (11752326_a_at) / RFU OR2T12 /// OR2T33 /// OR2T8 (11738714_s_at) / Fold change /veh OR2T12 /// OR2T33 /// OR2T8 (11738714_s_at) / RFU VCAN (11748164_a_at) / Fold change /veh VCAN (11748164_a_at) / RFU JSRP1 (11732532_at) / Fold change /veh JSRP1 (11732532_at) / RFU KRTAP10-11 (11738290_x_at) / Fold change /veh KRTAP10-11 (11738290_x_at) / RFU MYO3A (11730013_a_at) / Fold change /veh MYO3A (11730013_a_at) / RFU EBF3 (11725865_a_at) / Fold change /veh EBF3 (11725865_a_at) / RFU CAMK2N1 (11719241_x_at) / Fold change /veh CAMK2N1 (11719241_x_at) / RFU C5orf56 (11738088_a_at) / Fold change /veh C5orf56 (11738088_a_at) / RFU OLFML3 (11715873_a_at) / Fold change /veh OLFML3 (11715873_a_at) / RFU LOC100653217 /// NTM (11731650_a_at) / Fold change /veh LOC100653217 /// NTM (11731650_a_at) / RFU MAPK11 (11762145_a_at) / Fold change /veh MAPK11 (11762145_a_at) / RFU FIZ1 (11724087_x_at) / Fold change /veh FIZ1 (11724087_x_at) / RFU OASL (11726364_x_at) / Fold change /veh OASL (11726364_x_at) / RFU SOX15 (11748057_x_at) / Fold change /veh SOX15 (11748057_x_at) / RFU CD79A (11719716_a_at) / Fold change /veh CD79A (11719716_a_at) / RFU HIST1H1D (11736915_at) / Fold change /veh HIST1H1D (11736915_at) / RFU CASKIN2 (11723855_a_at) / Fold change /veh CASKIN2 (11723855_a_at) / RFU LOC730098 (11760151_x_at) / Fold change /veh LOC730098 (11760151_x_at) / RFU OR4N2 (11742367_at) / Fold change /veh OR4N2 (11742367_at) / RFU PRRT2 (11749266_a_at) / Fold change /veh PRRT2 (11749266_a_at) / RFU SNX32 (11753110_a_at) / Fold change /veh SNX32 (11753110_a_at) / RFU CDHR5 (11726645_a_at) / Fold change /veh CDHR5 (11726645_a_at) / RFU RCAN1 (11760418_a_at) / Fold change /veh RCAN1 (11760418_a_at) / RFU FAM167A (11723789_a_at) / Fold change /veh FAM167A (11723789_a_at) / RFU FAM26E (11764081_at) / Fold change /veh FAM26E (11764081_at) / RFU ISYNA1 (11749810_s_at) / Fold change /veh ISYNA1 (11749810_s_at) / RFU ACY1 (11761880_at) / Fold change /veh ACY1 (11761880_at) / RFU 11764098_at / Fold change /veh 11764098_at / RFU SAMD14 (11745864_x_at) / Fold change /veh SAMD14 (11745864_x_at) / RFU NPB (11741838_a_at) / Fold change /veh NPB (11741838_a_at) / RFU TMPRSS6 (11731388_a_at) / Fold change /veh TMPRSS6 (11731388_a_at) / RFU KRTAP10-2 (11738614_at) / Fold change /veh KRTAP10-2 (11738614_at) / RFU ARHGAP8 /// PRR5-ARHGAP8 (11727945_x_at) / Fold change /veh ARHGAP8 /// PRR5-ARHGAP8 (11727945_x_at) / RFU KRTAP5-7 /// NADSYN1 (11734609_at) / Fold change /veh KRTAP5-7 /// NADSYN1 (11734609_at) / RFU RASL12 (11751679_a_at) / Fold change /veh RASL12 (11751679_a_at) / RFU CDKN2B (11736163_a_at) / Fold change /veh CDKN2B (11736163_a_at) / RFU PRF1 (11729649_at) / Fold change /veh PRF1 (11729649_at) / RFU, ZNF638 /// ZNF638-IT1 / Fold change vs veh, ZNF638 /// ZNF638-IT1 / RFU, PANK3 / Fold change vs veh, PANK3 / RFU, SH3YL1 / Fold change vs veh, SH3YL1 / RFU, ZEB2 / Fold change vs veh, ZEB2 / RFU, NRIP1 / Fold change vs veh, NRIP1 / RFU, PTTG1IP / Fold change vs veh, PTTG1IP / RFU, CAPN2 / Fold change vs veh, CAPN2 / RFU, MED14 / Fold change vs veh, MED14 / RFU, SNORA58 / Fold change vs veh, SNORA58 / RFU, C1orf63 / Fold change vs veh, C1orf63 / RFU, LRRFIP1 / Fold change vs veh, LRRFIP1 / RFU, NDUFAF7 / Fold change vs veh, NDUFAF7 / RFU, SLC12A2 / Fold change vs veh, SLC12A2 / RFU, IBTK / Fold change vs veh, IBTK / RFU, ESF1 / Fold change vs veh, ESF1 / Fold change vs veh, TMEM50B / RFU, TAOK1 / Fold change vs veh, TAOK1 / RFU, ACBD3 / Fold change vs veh, ACBD3 / RFU, TMA16 / Fold change vs veh, TMA16 / RFU, RWDD3 / Fold change vs veh, RWDD3 / RFU, BCAT1 / Fold change vs veh, BCAT1 / RFU, EDEM3 / Fold change vs veh, EDEM3 / RFU, TMEM33 / Fold change vs veh, TMEM33 / RFU, WDR75 / Fold change vs veh, WDR75 / RFU, AHCTF1 / Fold change vs veh, AHCTF1 / RFU, TFRC / Fold change vs veh, TFRC / RFU, ZDHHC17 / Fold change vs veh, ZDHHC17 / RFU, NOM1 / Fold change vs veh, NOM1 / RFU, ARL8B / Fold change vs veh, ARL8B / RFU, ZBTB11 / Fold change vs veh, ZBTB11 / RFU, TAMM41 / Fold change vs veh, TAMM41 / RFU, KIAA1704 /// LOC100996395 / Fold change vs veh, KIAA1704 /// LOC100996395 / RFU, ING1 / Fold change vs veh, ING1 / RFU, TRMT61B / Fold change vs veh, TRMT61B / RFU, FUBP3 / Fold change vs veh, FUBP3 / RFU, TP53 / Fold change vs veh, TP53 / RFU, TNKS2 / Fold change vs veh, TNKS2 / RFU, ZFP14 / Fold change vs veh, ZFP14 / RFU, ACTR2 / Fold change vs veh, ACTR2 / RFU, PPP3R1 / Fold change vs veh, PPP3R1 / RFU, PIK3R1 / Fold change vs veh, PIK3R1 / RFU, HNRNPA1 / Fold change vs veh, HNRNPA1 / RFU, RNF170 / Fold change vs veh, RNF170 / RFU, ZNF28 / Fold change vs veh, ZNF28 / RFU, RNGTT / Fold change vs veh, RNGTT / RFU, OGT / Fold change vs veh, OGT / RFU, BRD1 / Fold change vs veh, BRD1 / RFU, MARS / Fold change vs veh, MARS / RFU, ZNF655 / Fold change vs veh, ZNF655 / RFU, FAHD1 / Fold change vs veh, FAHD1 / RFU, BDP1 / Fold change vs veh, BDP1 / RFU, LRRCC1 / Fold change vs veh, LRRCC1 / RFU, ARID1A / Fold change vs veh, ARID1A / RFU, ZNF146 / Fold change vs veh, ZNF146 / RFU, ZNF330 / Fold change vs veh, ZNF330 / RFU, GPN3 / Fold change vs veh, GPN3 / RFU, C9orf123 / Fold change vs veh, C9orf123 / RFU, N4BP2L2 / Fold change vs veh, N4BP2L2 / RFU, ARFIP1 / Fold change vs veh, ARFIP1 / RFU, FAM179B / Fold change vs veh, FAM179B / RFU, BCL10 / Fold change vs veh, BCL10 / RFU, UHRF1BP1L / Fold change vs veh, UHRF1BP1L / RFU, BET1 / Fold change vs veh, BET1 / RFU, CNOT2 / Fold change vs veh, CNOT2 / RFU, ZNF268 / Fold change vs veh, ZNF268 / Fold change vs veh, ZNF507 / RFU, DGCR2 / Fold change vs veh, DGCR2 / RFU, WDSUB1 / Fold change vs veh, WDSUB1 / Fold change vs veh, HSP90B1 /// MIR3652 / RFU, ADSS / Fold change vs veh, ADSS / RFU, GK / Fold change vs veh, GK / RFU, ZNF148 / Fold change vs veh, ZNF148 / RFU, TAF9 / Fold change vs veh, TAF9 / RFU, SLC1A5 / Fold change vs veh, SLC1A5 / RFU, SLMO2 / Fold change vs veh, SLMO2 / RFU, ABCC4 / Fold change vs veh, ABCC4 / RFU, LOC101060439 /// RAP1B / Fold change vs veh, LOC101060439 /// RAP1B / RFU, RFX7 / Fold change vs veh, RFX7 / RFU, GTPBP10 / Fold change vs veh, GTPBP10 / RFU, CNEP1R1 / Fold change vs veh, CNEP1R1 / RFU, BIVM-ERCC5 /// ERCC5 / Fold change vs veh, BIVM-ERCC5 /// ERCC5 / RFU, ILF3 / Fold change vs veh, ILF3 / RFU 11762660_at / Fold change /veh 11762660_at / RFU VCAN (11757783_s_at) / Fold change /veh VCAN (11757783_s_at) / RFU DDX43 (11728927_at) / Fold change /veh DDX43 (11728927_at) / RFU KRT8 (11758188_x_at) / Fold change /veh KRT8 (11758188_x_at) / RFU NKD1 (11759106_at) / Fold change /veh NKD1 (11759106_at) / RFU SRD5A1 (11742802_a_at) / Fold change /veh SRD5A1 (11742802_a_at) / RFU TPSAB1 /// TPSB2 (11721975_s_at) / Fold change /veh TPSAB1 /// TPSB2 (11721975_s_at) / RFU GSTM3 (11746129_a_at) / Fold change /veh GSTM3 (11746129_a_at) / RFU IL23R (11737362_x_at) / Fold change /veh IL23R (11737362_x_at) / RFU TMEM51 (11727254_a_at) / Fold change /veh TMEM51 (11727254_a_at) / RFU PIWIL2 (11732686_x_at) / Fold change /veh PIWIL2 (11732686_x_at) / RFU ORM1 (11744905_x_at) / Fold change /veh ORM1 (11744905_x_at) / RFU CCDC152 (11743942_at) / Fold change /veh CCDC152 (11743942_at) / RFU ECM1 (11717891_a_at) / Fold change /veh ECM1 (11717891_a_at) / RFU IL23R (11748794_a_at) / Fold change /veh IL23R (11748794_a_at) / RFU TNFAIP8L3 (11732012_x_at) / Fold change /veh TNFAIP8L3 (11732012_x_at) / RFU MBOAT4 (11741988_at) / Fold change /veh MBOAT4 (11741988_at) / RFU 11764193_at / Fold change /veh 11764193_at / RFU TMEM53 (11763286_at) / Fold change /veh TMEM53 (11763286_at) / RFU MAGEB2 (11727129_at) / Fold change /veh MAGEB2 (11727129_at) / RFU TMEM200A (11744735_a_at) / Fold change /veh TMEM200A (11744735_a_at) / RFU CCDC152 (11751479_a_at) / Fold change /veh CCDC152 (11751479_a_at) / RFU FAM211A (11726209_a_at) / Fold change /veh FAM211A (11726209_a_at) / RFU RGS16 (11746705_a_at) / Fold change /veh RGS16 (11746705_a_at) / RFU VCAN (11755009_s_at) / Fold change /veh VCAN (11755009_s_at) / RFU RHOB (11743442_s_at) / Fold change /veh RHOB (11743442_s_at) / RFU RGS16 (11720943_a_at) / Fold change /veh RGS16 (11720943_a_at) / RFU RGS16 (11720944_at) / Fold change /veh RGS16 (11720944_at) / RFU, VPS4B / Fold change vs veh, VPS4B / RFU, CREB1 / Fold change vs veh, CREB1 / RFU, DNAJC13 / Fold change vs veh, DNAJC13 / RFU, GNAQ / Fold change vs veh, GNAQ / RFU, CDK5R1 / Fold change vs veh, CDK5R1 / RFU, ZRANB3 / Fold change vs veh, ZRANB3 / RFU, CUL4A / Fold change vs veh, CUL4A / RFU, CCNY / Fold change vs veh, CCNY / RFU, UFL1 / Fold change vs veh, UFL1 / RFU, COG3 / Fold change vs veh, COG3 / RFU, DIAPH2 / Fold change vs veh, DIAPH2 / RFU, SKA2 / Fold change vs veh, SKA2 / RFU, AFF3 / Fold change vs veh, AFF3 / RFU, LMF1 / Fold change vs veh, LMF1 / RFU, IPO11 / Fold change vs veh, IPO11 / RFU, DFFB / Fold change vs veh, DFFB / RFU, FOXP1 / Fold change vs veh, FOXP1 / RFU, CARD8 / Fold change vs veh, CARD8 / RFU, STRN3 / Fold change vs veh, STRN3 / RFU, ADK / Fold change vs veh, ADK / RFU, RASSF2 / Fold change vs veh, RASSF2 / RFU, WIPF1 / Fold change vs veh, WIPF1 / RFU, LARP1B / Fold change vs veh, LARP1B / RFU, RASA1 / Fold change vs veh, RASA1 / RFU, RB1 / Fold change vs veh, RB1 / RFU, PPFIA1 / Fold change vs veh, PPFIA1 / RFU, MAT2A / Fold change vs veh, MAT2A / RFU, CCT5 / Fold change vs veh, CCT5 / RFU, WDR92 / Fold change vs veh, WDR92 / RFU, CUX1 / Fold change vs veh, CUX1 / RFU, TTC7A / Fold change vs veh, TTC7A / RFU, TMEM135 / Fold change vs veh, TMEM135 / RFU, DEPTOR / Fold change vs veh, DEPTOR / RFU, CPM / Fold change vs veh, CPM / RFU, DNAJB6 / Fold change vs veh, DNAJB6 / RFU, CACNA2D3 / Fold change vs veh, CACNA2D3 / RFU, DTX4 / Fold change vs veh, DTX4 / RFU, TFCP2 / Fold change vs veh, TFCP2 / RFU, GMCL1 /// GMCL1P1 / Fold change vs veh, GMCL1 /// GMCL1P1 / RFU, AEBP2 / Fold change vs veh, AEBP2 / RFU, SNHG1 /// SNORD22 /// SNORD25 /// SNORD26 /// SNORD27 /// SNORD28 /// SNORD29 /// SNORD31 / Fold change vs veh, SNHG1 /// SNORD22 /// SNORD25 /// SNORD26 /// SNORD27 /// SNORD28 /// SNORD29 /// SNORD31 / Fold change (Aza/veh), C12orf56 (ProbeSet 11735607_a_at) / Fold change (ACY-1035/veh), C12orf56 (ProbeSet 11735607_a_at) / Fold change (Aza/veh), FGFR1OP (ProbeSet 11751329_s_at) / Fold change (ACY-1035/veh), FGFR1OP (ProbeSet 11751329_s_at) / Fold change (Aza/veh), VPS36 (ProbeSet 11739960_a_at) / Fold change (ACY-1035/veh), VPS36 (ProbeSet 11739960_a_at) / RFU SYPL1 (11715823_x_at) / Fold change /veh SYPL1 (11715823_x_at) / RFU IGFBP7 (11715501_s_at) / Fold change /veh IGFBP7 (11715501_s_at) / RFU REEP3 (11722064_at) / Fold change /veh REEP3 (11722064_at) / RFU IGLL1 (11728026_x_at) / Fold change /veh IGLL1 (11728026_x_at): dose or concentration left out as unconfirmed
Conditions: ProbeSet 11757113_a_at; LIST D

Structure (SMILES): Nc1ccc(-c2cccs2)cc1NC(=O)c1ccc2c(c1)cc(C1CC1)n2CCN1CCOCC1 [ACY-1035]
- RFU, SNHG1 /// SNORD22 /// SNORD25 /// SNORD26 /// SNORD27 /// SNORD28 /// SNORD29 /// SNORD31: 319.01 RFU
